Patent publication US20110082130A1 (LIGAND PHARMACEUTICALS, INC., priority 2006, published 2011)

Molecular target: T1, chimeric human H3 receptor (Homo sapiens, UniProt Q9Y5N1)
T1 construct: made in house; host or cells: Sf9 insect cells (baculovirus); P2 membrane preparation
Experiment: Chimeric human H3 receptor GTP binding assay (agonist-stimulated GTP-gamma35S binding, Example 7)
Format: biochemical
Conditions: assay of Example 7
Procedure, shortened: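 Sf9 membranes co-expressing chimeric human H3 receptor and heterotrimeric G-protein, 35 μg/tube, in pH 7.4 Tris buffer with 10 μM GDP. Test compounds (10^−10–10^−6 M) competed against 1 μM histamine, […] GTP-gamma35S, 60 min at room temperature. Filter-bound radioactivity counted; IC50 converted to Ki by Cheng-Prusoff. Agonism/inverse agonism tested without histamine (EC50).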

T1 sequence (Q9Y5N1 with tags, fused parts or gaps): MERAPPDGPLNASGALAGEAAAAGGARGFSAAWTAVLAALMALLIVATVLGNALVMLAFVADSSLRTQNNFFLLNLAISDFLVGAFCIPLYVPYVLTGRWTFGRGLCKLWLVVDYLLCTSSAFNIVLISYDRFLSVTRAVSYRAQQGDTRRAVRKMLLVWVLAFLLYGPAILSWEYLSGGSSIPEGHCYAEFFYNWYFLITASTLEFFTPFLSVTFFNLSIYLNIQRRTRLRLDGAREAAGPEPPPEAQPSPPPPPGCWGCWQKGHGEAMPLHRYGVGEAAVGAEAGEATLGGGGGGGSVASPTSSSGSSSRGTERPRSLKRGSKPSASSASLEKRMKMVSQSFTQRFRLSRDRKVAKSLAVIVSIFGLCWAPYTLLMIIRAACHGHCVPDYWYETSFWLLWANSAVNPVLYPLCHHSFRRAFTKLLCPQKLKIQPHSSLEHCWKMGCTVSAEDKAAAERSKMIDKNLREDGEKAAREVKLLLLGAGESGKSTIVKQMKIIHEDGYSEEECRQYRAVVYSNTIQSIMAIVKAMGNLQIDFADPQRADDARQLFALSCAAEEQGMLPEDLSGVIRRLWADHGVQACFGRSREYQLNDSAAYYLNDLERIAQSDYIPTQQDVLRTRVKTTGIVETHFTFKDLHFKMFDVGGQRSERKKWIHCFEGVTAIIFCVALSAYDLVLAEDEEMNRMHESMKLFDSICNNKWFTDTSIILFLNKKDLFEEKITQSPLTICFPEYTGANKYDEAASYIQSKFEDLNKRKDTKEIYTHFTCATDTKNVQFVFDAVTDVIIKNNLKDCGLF

Ki ("*" in Ki of Table II) | Ki (Table II "Ki", symbol *) | SMILES
< 1000 nM |  | O=C(CN1CCc2nc(-c3ccc(Cl)c(C(F)(F)F)c3)sc2C1)N1CCN(C2CCC2)CC1 [Compound 373, 2-[4-chloro-3-(trifluoromethyl)phenyl]-5-[2-(4-cyclobutylpiperazin-1-yl)-2-oxoethyl]-4,5,6,7-tetrahydro[1,3]thiazolo [5,4-c]pyridine]
< 1000 nM |  | O=C(CN1CCc2nc(-c3cc(C(F)(F)F)ccc3Cl)sc2C1)N1CCN(C2CCC2)CC1 [Compound 374, 2-[2-chloro-5-(trifluoromethyl)phenyl]-5-[2-(4-cyclobutylpiperazin-1-yl)-2-oxoethyl]-4,5,6,7-tetrahydro[1,3]thiazolo [5,4-c]pyridine]
< 1000 nM |  | CCOC(=O)c1ccc(-c2nc3c(s2)CN(CC(=O)N2CCN(C4CCC4)CC2)CC3)cc1 [Compound 375, ethyl 4-{5-[2-(4-cyclobutylpiperazin-1-yl)-2-oxoethyl]-4,5,6,7-tetrahydro[1,3]thiazolo [5,4-c]pyridin-2-yl}benzoate]
< 1000 nM |  | CCOC(=O)c1cccc(-c2nc3c(s2)CN(CC(=O)N2CCN(C4CCC4)CC2)CC3)c1 [Compound 376, ethyl 3-{5-[2-(4-cyclobutylpiperazin-1-yl)-2-oxoethyl]-4,5,6,7-tetrahydro[1,3]thiazolo [5,4-c]pyridin-2-yl}benzoate]
< 1000 nM |  | O=C(CN1CCc2cc(-c3ccc4c(c3)OCO4)ccc2C1)N1CCN(C2CCC2)CC1 [Compound 377, 6-(1,3-benzodioxol-5-yl)-2-[2-(4-cyclobutylpiperazin-1-yl)-2-oxoethyl]-1,2,3,4-tetrahydroisoquinoline]
< 1000 nM |  | O=C(CN1CCc2cc(-c3ccc4c(c3)OCO4)ccc2C1)N1CCN(C2CCCC2)CC1 [Compound 378, 6-(1,3-benzodioxol-5-yl)-2-[2-(4-cyclopentylpiperazin-1-yl)-2-oxoethyl]-1,2,3,4-tetrahydroisoquinoline]
< 1000 nM |  | O=C(CN1CCc2cc(-c3ccc4c(c3)OCCO4)ccc2C1)N1CCN(C2CCC2)CC1 [Compound 380, 2-[2-(4-cyclobutylpiperazin-1-yl)-2-oxoethyl]-6-(2,3-dihydro-1,4-benzodioxin-6-yl)-1,2,3,4-tetrahydroisoquinoline]
< 1000 nM |  | O=C(CN1CCc2cc(-c3ccc4c(c3)OCCO4)ccc2C1)N1CCN(C2CCCC2)CC1 [Compound 381, 2-[2-(4-cyclopentylpiperazin-1-yl)-2-oxoethyl]-6-(2,3-dihydro-1,4-benzodioxin-6-yl)-1,2,3,4-tetrahydroisoquinoline]
< 1000 nM |  | CC(C)N1CCN(C(=O)CN2CCc3cc(-c4ccc(S(C)(=O)=O)cc4)ccc3C2)CC1 [Compound 382, 2-[2-(4-isopropylpiperazin-1-yl)-2-oxoethyl]-6-[4-(methylsulfonyl)phenyl]-1,2,3,4-tetrahydroisoquinoline]
< 1000 nM |  | CCC(C)N1CCN(C(=O)CN2CCc3cc(-c4ccc(OC)nc4)ccc3C2)CC1 (stereo not shown) [Compound 383, 2-[2-(4-sec-butylpiperazin-1-yl)-2-oxoethyl]-6-(6-methoxypyridin-3-yl)-1,2,3,4-tetrahydroisoquinoline]
< 1000 nM |  | COc1ccc(-c2ccc3c(c2)CCN(CC(=O)N2CCN(C(C)C)CC2)C3)cn1 [Compound 386, 2-[2-(4-isopropylpiperazin-1-yl)-2-oxoethyl]-6-(6-methoxypyridin-3-yl)-1,2,3,4-tetrahydroisoquinoline]
< 1000 nM |  | CC(C)N1CCN(C(=O)CN2CCc3cc(-c4cncnc4)ccc3C2)CC1 [Compound 387, 2-[2-(4-isopropylpiperazin-1-yl)-2-oxoethyl]-6-pyrimidin-5-yl-1,2,3,4-tetrahydroisoquinoline]
< 1000 nM |  | CS(=O)(=O)c1ccc(-c2ccc3c(c2)CCN(CC(=O)N2CCN(C4CCC4)CC2)C3)cc1 [Compound 389, 2-[2-(4-cyclobutylpiperazin-1-yl)-2-oxoethyl]-6-[4-(methylsulfonyl)phenyl]-1,2,3,4-tetrahydroisoquinoline]
< 1000 nM |  | CS(=O)(=O)c1ccc(-c2ccc3c(c2)CCN(CC(=O)N2CCN(C4CCCC4)CC2)C3)cc1 [Compound 390, 2-[2-(4-cyclopentylpiperazin-1-yl)-2-oxoethyl]-6-[4-(methylsulfonyl)phenyl]-1,2,3,4-tetrahydroisoquinoline]
< 1000 nM |  | COc1ccc(-c2ccc3c(c2)CCN(CC(=O)N2CCN(C4CCCC4)CC2)C3)cn1 [Compound 391, 2-[2-(4-cyclopentylpiperazin-1-yl)-2-oxoethyl]-6-(6-methoxypyridin-3-yl)-1,2,3,4-tetrahydroisoquinoline]
< 1000 nM |  | O=C(CN1CCc2cc(-c3cncnc3)ccc2C1)N1CCN(C2CCCC2)CC1 [Compound 392, 2-[2-(4-cyclopentylpiperazin-1-yl)-2-oxoethyl]-6-pyrimidin-5-yl-1,2,3,4-tetrahydroisoquinoline]
< 1000 nM |  | O=C(CN1CCc2cc(-c3cncnc3)ccc2C1)N1CCN(C2CCCCC2)CC1 [Compound 393, 2-[2-(4-cyclohexylpiperazin-1-yl)-2-oxoethyl]-6-pyrimidin-5-yl-1,2,3,4-tetrahydroisoquinoline]
< 1000 nM |  | CS(=O)(=O)c1cccc(-c2ccc3c(c2)CCN(CC(=O)N2CCN(C4CCCC4)CC2)C3)c1 [Compound 394, 2-[2-(4-cyclopentylpiperazin-1-yl)-2-oxoethyl]-6-[3-(methylsulfonyl)phenyl]-1,2,3,4-tetrahydroisoquinoline]
< 1000 nM |  | CS(=O)(=O)c1cccc(-c2ccc3c(c2)CCN(CC(=O)N2CCN(C4CCCCC4)CC2)C3)c1 [Compound 395, 2-[2-(4-cyclohexylpiperazin-1-yl)-2-oxoethyl]-6-[3-(methylsulfonyl)phenyl]-1,2,3,4-tetrahydroisoquinoline]
< 1000 nM |  | CCC(C)N1CCN(C(=O)CN2CCc3cc(-c4ccc(S(C)(=O)=O)cc4)ccc3C2)CC1 (stereo not shown) [Compound 396, 2-[2-(4-sec-butylpiperazin-1-yl)-2-oxoethyl]-6-[4-(methylsulfonyl)phenyl]-1,2,3,4-tetrahydroisoquinoline]
< 1000 nM |  | CCC(C)N1CCN(C(=O)CN2CCc3cc(-c4cncnc4)ccc3C2)CC1 (stereo not shown) [Compound 397, 2-[2-(4-sec-butylpiperazin-1-yl)-2-oxoethyl]-6-pyrimidin-5-yl-1,2,3,4-tetrahydroisoquinoline]
< 1000 nM |  | COc1cccc(-c2ccc3c(c2)CCN(CC(=O)N2CCN(C4CCC4)CC2)C3)c1 [Compound 475, 2-[2-(4-cyclobutylpiperazin-1-yl)-2-oxoethyl]-6-(3-methoxyphenyl)-1,2,3,4-tetrahydroisoquinoline]
< 1000 nM |  | COc1cccc(-c2ccc3c(c2)CCN(CC(=O)N2CCN(C4CCCC4)CC2)C3)c1 [Compound 476, 2-[2-(4-cyclopentylpiperazin-1-yl)-2-oxoethyl]-6-(3-methoxyphenyl)-1,2,3,4-tetrahydroisoquinoline]
 | < 1000 nM | CCOc1cccc(-c2ccc3c(c2)CCN(CC(=O)N2CCN(C4CCC4)CC2)C3)c1 [Compound 482, 2-[2-(4-cyclobutylpiperazin-1-yl)-2-oxoethyl]-6-(3-ethoxyphenyl)-1,2,3,4-tetrahydroisoquinoline]
 | < 1000 nM | CCOc1cccc(-c2ccc3c(c2)CCN(CC(=O)N2CCN(C4CCCC4)CC2)C3)c1 [Compound 483, 2-[2-(4-cyclopentylpiperazin-1-yl)-2-oxoethyl]-6-(3-ethoxyphenyl)-1,2,3,4-tetrahydroisoquinoline]
